According to PMC2788677 (Journal of medicinal chemistry, 2009):

Key:
MOR [1] = assay: Radioligand binding assay, CHO cells stably expressing MOR, [3H]DAMGO; conditions: relative to dermorphin
MOR [2] = conditions: cited from earlier work

In the case of Dermorphin, the “Rel. MOR affinity” value (MOR [1]) is given as 1.0 and the “higher affinity than morphine for MOR” value (MOR [2]) is given as 100 fold.
